Changes are numbered by the printed parent chain. Where two headings read alike, the source gives them in different places.
Key:
SNAP-D2SR I128^3.46A = target: T1, SNAP-D2SR I128^3.46A (Homo sapiens, UniProt P14416, I128A); experiment: functional cAMP assay, BRET biosensor; type: cell-based
T1 sequence (P14416 1-414 isoform P14416-2 I128A): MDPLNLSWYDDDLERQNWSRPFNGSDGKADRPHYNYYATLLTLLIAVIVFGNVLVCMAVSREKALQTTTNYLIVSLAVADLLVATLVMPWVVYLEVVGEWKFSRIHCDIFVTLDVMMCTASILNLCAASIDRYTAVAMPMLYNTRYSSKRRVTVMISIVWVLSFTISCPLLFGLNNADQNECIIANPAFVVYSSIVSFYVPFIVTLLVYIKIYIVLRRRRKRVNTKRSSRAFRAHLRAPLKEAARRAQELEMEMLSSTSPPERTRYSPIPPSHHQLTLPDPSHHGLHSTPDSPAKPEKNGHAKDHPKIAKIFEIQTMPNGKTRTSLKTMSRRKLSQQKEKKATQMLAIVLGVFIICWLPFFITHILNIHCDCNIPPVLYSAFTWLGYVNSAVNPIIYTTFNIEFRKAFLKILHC
Experimental: (§1) Flp-In-CHO cells stably coexpressing the CAMYEL biosensor and DRs were plated into white 96-well CulturPlates (Revvity) and grown overnight. The cells were equilibrated in Hank’s balanced salt solution (HBSS) at 37 °C (or 25 °C when indicated) before starting the experiment. The cells were costimulated with the agonists and 10 μM forskolin for the indicated time frames when the BRET readings were captured. Coelenterazine (Nanolight Technology, AZ) was added at a final concentration of 5 μM at least 3 min prior to measurement. […] Net BRET was determined by subtraction of the vehicle control coadded with 10 μM forskolin.
(§2) Dose–response curves were fitted using the following three-parameter equation: response=bottom+top−bottom/1+10^(logEC50−log[A]) 5 where top and bottom represent the maximal and minimal asymptote of the dose response curve, [A] is the molar concentration of the agonist, and EC50 is the molar concentration of the agonist required to give a response half-way between bottom and top.

D2R = target: T2, D2R (Homo sapiens, UniProt P14416); experiment: D2R internalization whole cell ELISA; type: cell-based
T2 construct: expressed in transfected cells; host or cells: CHO cells stably overexpressing GRK2, transient
T2 sequence (P14416 whole entry): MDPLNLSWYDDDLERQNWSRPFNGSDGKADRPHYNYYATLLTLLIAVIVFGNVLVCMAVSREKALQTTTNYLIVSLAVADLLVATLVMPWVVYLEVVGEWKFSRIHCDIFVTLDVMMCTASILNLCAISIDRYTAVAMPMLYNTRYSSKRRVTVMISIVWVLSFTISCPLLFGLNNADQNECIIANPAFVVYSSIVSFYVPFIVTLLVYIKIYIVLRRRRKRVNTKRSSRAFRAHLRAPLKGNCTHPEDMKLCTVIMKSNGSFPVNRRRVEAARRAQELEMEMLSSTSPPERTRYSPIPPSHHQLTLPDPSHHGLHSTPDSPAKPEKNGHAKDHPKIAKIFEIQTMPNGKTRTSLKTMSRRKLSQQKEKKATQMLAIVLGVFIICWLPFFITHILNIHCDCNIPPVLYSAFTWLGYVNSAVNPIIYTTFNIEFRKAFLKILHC

D2LR [1] = target: T3, D2LR (Homo sapiens, UniProt P14416); experiment: cell membrane [3H]raclopride binding assay; conditions: for Logα_DA / α′_DA: cooperativity with DA
T3 sequence (P14416 whole entry): as above

SNAP-D2SR L76^2.46A [2] = target: T4, SNAP-D2SR L76^2.46A (Homo sapiens, UniProt P14416, L76A); experiment: functional cAMP assay, BRET biosensor; type: cell-based
T4 sequence (P14416 1-414 isoform P14416-2 L76A): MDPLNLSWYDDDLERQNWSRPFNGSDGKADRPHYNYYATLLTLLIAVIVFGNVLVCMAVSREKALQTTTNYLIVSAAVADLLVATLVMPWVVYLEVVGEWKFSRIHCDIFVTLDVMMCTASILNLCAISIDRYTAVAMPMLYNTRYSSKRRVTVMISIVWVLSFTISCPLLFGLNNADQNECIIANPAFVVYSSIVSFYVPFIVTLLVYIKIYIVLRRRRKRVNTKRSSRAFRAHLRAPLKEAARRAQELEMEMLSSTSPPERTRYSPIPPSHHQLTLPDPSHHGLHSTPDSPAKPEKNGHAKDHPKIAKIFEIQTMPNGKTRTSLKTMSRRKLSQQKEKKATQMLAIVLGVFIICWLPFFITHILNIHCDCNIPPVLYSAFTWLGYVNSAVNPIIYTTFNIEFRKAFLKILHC
Experimental: as §1, §2

SNAP-D2SR W384^7.40A = SNAP-D2SR W384^7.40A (Homo sapiens, UniProt P14416, W413A); experiment: functional cAMP assay, BRET biosensor; type: cell-based
SNAP-D2SR W384^7.40A, sequence (P14416 1-414 isoform P14416-2 W384A): as the sequence (P14416 1-414 isoform P14416-2 L76A) above, with A76L, W384A counted along it
Experimental: Flp-In-CHO cells stably coexpressing the CAMYEL biosensor and DRs were plated into white 96-well CulturPlates (Revvity) and grown overnight. The cells were equilibrated in Hank’s balanced salt solution (HBSS) at 37 °C (or 25 °C when indicated) before starting the experiment. The cells were costimulated with the agonists and 10 μM forskolin for the indicated time frames when the BRET readings were captured. Coelenterazine (Nanolight Technology, AZ) was added at a final concentration of 5 μM at least 3 min prior to measurement. […] Net BRET was determined by subtraction of the vehicle control coadded with 10 μM forskolin. For phenoxybenzamine alkylation experiments, the cells were treated with 0.1, 0.3, or 1 μM phenoxybenzamine (Sigma-Aldrich) diluted in HBSS and equilibrated at 37 °C for 30 min prior to the commencement of the assay.
as §2

SNAP-D2SR C118^3.36A = target: T5, SNAP-D2SR C118^3.36A (Homo sapiens, UniProt P14416, C118A); experiment: functional cAMP assay, BRET biosensor; type: cell-based
T5 sequence (P14416 1-414 isoform P14416-2 C118A): T1 sequence (P14416 1-414 isoform P14416-2 I128A) with C118A, A128I
Experimental: as §1, §2

SNAP-D2SR T398^7.54A = SNAP-D2SR T398^7.54A (Homo sapiens, UniProt P14416, T427A); experiment: functional cAMP assay, BRET biosensor; type: cell-based; set-up: expressed in transfected cells
SNAP-D2SR T398^7.54A, sequence (P14416 1-414 isoform P14416-2 T398A): as the sequence (P14416 1-414 isoform P14416-2 L76A) above, with A76L, T398A counted along it
Experimental: as §1, §2

SNAP-D2SR WT = SNAP-D2SR WT (Homo sapiens, UniProt P14416); experiment: cell membrane [3H]spiperone assay
SNAP-D2SR WT, sequence (P14416 1-414 isoform P14416-2): as the sequence (P14416 1-414 isoform P14416-2 L76A) above, with A76L counted along it
Experimental: (§3) Flp-In-CHO cells stably expressing the wild-type or mutant DRs were grown to 90% confluence in 175 cm^2 cell culture flasks. The cells were harvested in PBS containing 2 mM EDTA and centrifuged at 300g for 3 min. The resulting pellet was resuspended in ice-cold assay buffer (20 mM HEPES, 100 mM NaCl, 6 mM MgCl2, 1 mM EGTA, and 1 mM EDTA, pH 7.4), and the centrifugation step was repeated. The intact cell pellet was then resuspended in assay buffer and homogenized using a Polytron homogenizer. After centrifugation (1000g, 10 min), the pellet was discarded, and the supernatant was recentrifuged at 30,000g for 1 h at 4 °C using a Sorvall Evolution RC ultracentrifuge (Thermo Scientific). The resulting pellet was resuspended in assay buffer and stored in 250 μL aliquots at −80 °C. Membrane protein concentration was determined using a Pierce’s BCA protein assay kit (Thermo Fisher, Melbourne).
[^3H]­Spiperone binding experiments using cell membranes were conducted in a 200 μL reaction volume in assay buffer (20 mM HEPES, 100 mM NaCl, 6 mM MgCl2, 1 mM EGTA, and 1 mM EDTA, pH 7.4) containing 100 μM GppNHp and 0.1% ascorbic acid in 96-well plates. […] In all cases, nonspecific binding was determined in the presence of 10 μM haloperidol. To obtain affinity estimates of unlabeled agonists, competition binding experiments were performed at equilibrium. […] After this incubation period, bound and free radioligands were separated by fast-flow filtration through UniFilter-96 GF/B plates using a MicroBeta FilterMate harvester (Revvity) followed by three washes with ice-cold 0.9% NaCl. Filter bound radioactivity was detected as a chemiluminescence after the addition of MicroScint-20 (Revvity) in a MicroBeta plate counter (Revvity).
IC50 values obtained from the inhibition curves were converted to Ki values using the Cheng and Prusoff equation.

SNAP-D2SR L76^2.46A [3] = target: T4, SNAP-D2SR L76^2.46A; experiment: cell membrane [3H]spiperone assay
Experimental: as §3
[^3H]­Spiperone binding experiments using cell membranes were conducted in a 200 μL reaction volume in assay buffer (20 mM HEPES, 100 mM NaCl, 6 mM MgCl2, 1 mM EGTA, and 1 mM EDTA, pH 7.4) containing 100 μM GppNHp and 0.1% ascorbic acid in 96-well plates. […] In all cases, nonspecific binding was determined in the presence of 10 μM haloperidol. […] Filter bound radioactivity was detected as a chemiluminescence after the addition of MicroScint-20 (Revvity) in a MicroBeta plate counter (Revvity). […]

D2LR [4] = target: T3, D2LR; experiment: β-arrestin-2 recruitment BRET assay; type: cell-based
Experimental: Flp-In-CHO cells were seeded at a density of 2,000,000 cells per 10 cm dish and were transfected the following day using polyethylenimine as a transfection reagent. To assess β-arrestin-2 recruitment to the D2LR, the cells were transfected with 1 μg of Rluc8-tagged D2LR, 4 μg of YFP-β-arrestin-2, and 2 μg of GRK2. Twenty-four hours after transfection, the cells were plated into 96-well CulturPlates (PerkinElmer) and grown overnight. […] The cells were incubated with coelenterazine (Promega) at a final concentration of 5 μM for 5 min followed by stimulation with the agonists for an additional 5 min before the BRET readings were captured.

[5] = read-out: D2 PAM2 KB (converted)
[6] = +0.1 mM GppNHp, cooperativity with [3H]raclopride
[7] = +PTX, cooperativity with [3H]raclopride
[8] = +urea, cooperativity with [3H]raclopride

In the case of `COc1cc(CO)c(F)cc1C(=O)n1ccc2c(F)cccc21` [D2 PAM2, [5-fluoro-4-(hydroxymethyl)-2-methoxyphenyl]-(4-fluoro-1H-indol-1-yl)methanone], the “D2 PAM2 log τ” value (SNAP-D2SR I128^3.46A) is reported as “–3”, the “D2 PAM2 pKB” value (SNAP-D2SR I128^3.46A) is reported as 4.90 ± 0.18 and the Kb (SNAP-D2SR I128^3.46A; [5]) is reported as 13 µM. For the same compound, the “D2 PAM2 log αβ” value (SNAP-D2SR I128^3.46A; with DA) was 1.63 ± 0.17, the “D2 PAM2 αβ” value (SNAP-D2SR I128^3.46A; with DA) was 43 and the pKB (D2R) was 5.30 ± 0.29. The LogτB (D2R; intrinsic efficacy) was -2.20 ± 0.23, the Logαβ (D2R; with dopamine) was 0.99 ± 0.21 and the “fold lower affinity in cell membranes than in whole cell binding” value (D2LR [1]) was 4 fold. For the same compound, the “pKB_D2 PAM” value (D2LR [1]; +0.1 mM GppNHp) was 4.65 ± 0.05, the Logα_DA (D2LR [1]; +0.1 mM GppNHp) was 1.30 ± 0.02 and the “α′_DA” value (D2LR [1]; +0.1 mM GppNHp) was 20. The “Logα_[3H]raclo” value (D2LR [1]; [6]) was “–0.19 ± 0.05”, the “α_[3H]raclo” value (D2LR [1]; [6]) was 0.65 and the Kb (D2LR [1]; +0.1 mM GppNHp, read-out: KB_D2 PAM (converted)) was 22.5 µM. For the same compound, the “pKB_D2 PAM” value (D2LR [1]; +PTX) was 4.54 ± 0.03, the Logα_DA (D2LR [1]; +PTX) was 1.22 ± 0.07 and the “α′_DA” value (D2LR [1]; +PTX) was 17. The “Logα_[3H]raclo” value (D2LR [1]; [7]) was “–0.37 ± 0.10”, the “α_[3H]raclo” value (D2LR [1]; [7]) was 0.42 and the Kb (D2LR [1]; +PTX, read-out: KB_D2 PAM (converted)) was 29 µM. The “pKB_D2 PAM” value (D2LR [1]; +urea) was 4.53 ± 0.15, the Logα_DA (D2LR [1]; +urea) was 1.35 ± 0.12 and the “α′_DA” value (D2LR [1]; +urea) was 22. The “Logα_[3H]raclo” value (D2LR [1]; [8]) was “–0.06 ± 0.08”, the “α_[3H]raclo” value (D2LR [1]; [8]) was 0.87 and the Kb (D2LR [1]; +urea, read-out: KB_D2 PAM (converted)) was 30 µM. For the same compound, the logα_DA (D2LR [1]; D2LR) was 1.30 ± 0.02, the “logα_[3H]raclo” value (D2LR [1]; D2LR) was -0.19 ± 0.05 and the α_DA (D2LR [1]; D2LR) was 20. The “α_[3H]raclo” value (D2LR [1]; D2LR) was 0.64, the Kb (D2LR [1]; cell membrane preparations, read-out: KB) was 22 µM and the “D2 PAM2 log τ” value (SNAP-D2SR L76^2.46A [2]) was “–3”. The “D2 PAM2 pKB” value (SNAP-D2SR L76^2.46A [2]) was 5.52 ± 0.31, the “fold decrease in cooperativity between D2 PAM2 and DA” value (SNAP-D2SR L76^2.46A [2]) was 5 fold and the Kb (SNAP-D2SR L76^2.46A [2]; [5]) was 3 µM. For the same compound, the “D2 PAM2 log αβ” value (SNAP-D2SR L76^2.46A [2]; with DA) was 0.56 ± 0.09, the “D2 PAM2 αβ” value (SNAP-D2SR L76^2.46A [2]; with DA) was 3.6 and the Kb (SNAP-D2SR W384^7.40A) was 13.8 µM. It also gave a Logτ (SNAP-D2SR W384^7.40A) of -0.24 ± 0.08, a pKB (SNAP-D2SR W384^7.40A) of 4.86 ± 0.24 and a τ (SNAP-D2SR W384^7.40A) of 0.57. For the same compound, the Logαβ (SNAP-D2SR W384^7.40A; with DA) was 1.04 ± 0.15, the αβ (SNAP-D2SR W384^7.40A; with DA) was 11.0 and the “D2 PAM2 log τ” value (SNAP-D2SR C118^3.36A) was “–0.24 ± 0.05”. For the same compound, the “D2 PAM2 pKB” value (SNAP-D2SR C118^3.36A) was 4.82 ± 0.15, the “D2 PAM2 τ” value (SNAP-D2SR C118^3.36A) was 0.57 and the Kb (SNAP-D2SR C118^3.36A; [5]) was 15 µM. For the same compound, the “D2 PAM2 log αβ” value (SNAP-D2SR C118^3.36A; with DA) was 1.30 ± 0.13, the “D2 PAM2 αβ” value (SNAP-D2SR C118^3.36A; with DA) was 20 and the “D2 PAM2 log τ” value (SNAP-D2SR T398^7.54A) was “–1.40 ± 0.22”. The “D2 PAM2 pKB” value (SNAP-D2SR T398^7.54A) was 5.35 ± 0.17, the “D2 PAM2 τ” value (SNAP-D2SR T398^7.54A) was 0.04 and the “fold decrease in cooperativity with DA” value (SNAP-D2SR T398^7.54A; cAMP) was 6 fold. The Kb (SNAP-D2SR T398^7.54A; [5]) was 4 µM, the “D2 PAM2 log αβ” value (SNAP-D2SR T398^7.54A; with DA) was 0.46 ± 0.05 and the “D2 PAM2 αβ” value (SNAP-D2SR T398^7.54A; with DA) was 2.9. The pKB (SNAP-D2SR WT; [3H]spiperone competition binding interaction experiment) was 5.04 ± 0.17, the Kb (SNAP-D2SR WT; binding interaction experiment) was 9 µM and the “log α” value (SNAP-D2SR WT; cooperativity with DA, binding) was 1.05 ± 0.10. For the same compound, the α (SNAP-D2SR WT; cooperativity with DA, binding) was 11, the “fold shift + 10 μM PAM” value (SNAP-D2SR WT; shift of DA IC50) was 9 fold and the “ΔpIC50 + 10 μM PAM” value (SNAP-D2SR WT; shift of DA pIC50) was 0.97 ± 0.20. For the same compound, the “fold shift + 10 μM PAM” value (SNAP-D2SR L76^2.46A [3]; shift of DA IC50) was 3.5 fold, the “ΔpIC50 + 10 μM PAM” value (SNAP-D2SR L76^2.46A [3]; shift of DA pIC50) was 0.55 ± 0.07 and the pKB (D2LR [4]) was 5.18 ± 0.12. For the same compound, the LogτB (D2LR [4]; intrinsic efficacy) was -1.30 ± 0.16 and the Logαβ (D2LR [4]; with dopamine) was 1.52 ± 0.12.

Reference: publication PMC12186844 (ACS Chemical Neuroscience, 2025)
